Measurements reported in patent publication EP0255256A2, “Antibiotics produced by actinomadura parvosata” (SMITHKLINE BECKMAN CORPORATION, priority 1986, dated 1988).
≈ marks a conversion by molar mass, not a printed value.

Experiments:
Staph. aureus 209P [1] = experiment: MIC, standard microtiter assay; format: cell-based; conditions: Staphylococcus aureus; Staph. aureus 209P; Table VIII; read-out: MIC
Method: (§1) The in vitro minimal inhibitory concentration (MIC) of the AAJ-271 complex and its factors, and vancomycin were determined for a number of microorganisms using the standard microtite'r assay procedures. The results are shown in the following tables, each of which represents a different production run of the complex.
(§2) The in vitro minimal inhibitory concentration (MIC) and the in vitro minimal bactericidal concentration (MBC) of the AAJ-271 aglycones, pseudo-aglycone and vancomycin were determined for a number of microorganisms using the standard microtiter assay procedures.

Staph. aureus 2620 [2] = experiment: MIC, standard microtiter assay; format: cell-based; conditions: Staphylococcus aureus; Staph. aureus 2620; Table VIII; read-out: MIC
Method: as §1, §2

Staph. aureus 675 [3] = experiment: MIC, standard microtiter assay; format: cell-based; conditions: Staphylococcus aureus; Staph. aureus 675; Table VIII; read-out: MIC
Method: as §1, §2

Staph. aureus 910 [4] = experiment: MIC, standard microtiter assay; format: cell-based; conditions: Staphylococcus aureus; Staph. aureus 910; Table VIII; read-out: MIC
Method: as §1, §2

Staph. aureus HH127 [5] = experiment: MIC, standard microtiter assay; format: cell-based; conditions: Staphylococcus aureus; Staph. aureus HH127; Table VIII; read-out: MIC
Method: as §1, §2

Staph. epidermidis 2256 [6] = experiment: MIC, standard microtiter assay; format: cell-based; conditions: Staphylococcus epidermidis; Staph. epidermidis 2256; Table VIII; read-out: MIC
Method: as §1, §2

Staph. epidermidis 2265 [7] = experiment: MIC, standard microtiter assay; format: cell-based; conditions: Staphylococcus epidermidis; Staph. epidermidis 2265; Table VIII; read-out: MIC
Method: as §1, §2

Staph. epidermidis 2479 [8] = experiment: MIC, standard microtiter assay; format: cell-based; conditions: Staphylococcus epidermidis; Staph. epidermidis 2479; Table VIII; read-out: MIC
Method: as §1, §2

Staph. epidermidis 2588 [9] = experiment: MIC, standard microtiter assay; format: cell-based; conditions: Staphylococcus epidermidis; Staph. epidermidis 2588; Table VIII; read-out: MIC
Method: as §1, §2

Staph. haemolyticus 651 [10] = experiment: MIC, standard microtiter assay; format: cell-based; conditions: Staphylococcus haemolyticus; Staph. haemolyticus 651; Table VIII; read-out: MIC
Method: as §1, §2

[11] = system: Staph. saprophyticus 2657; experiment: MIC, standard microtiter assay; format: cell-based; conditions: Staphylococcus saprophyticus; Staph. saprophyticus 2657; Table VIII; read-out: MIC
Method: as §1, §2

Strep. faecalis 34358 [12] = experiment: MIC, standard microtiter assay; format: cell-based; conditions: Enterococcus faecalis; Strep. faecalis 34358; Table VIII; read-out: MIC
Method: as §1, §2

Strep. faecalis 657 [13] = experiment: MIC, standard microtiter assay; format: cell-based; conditions: Enterococcus faecalis; Strep. faecalis 657; Table VIII; read-out: MIC
Method: as §1, §2

[14] = system: Strep. pyogenes (Group A); experiment: MIC, standard microtiter assay; format: cell-based; conditions: Streptococcus pyogenes; Strep. pyogenes (Group A); Table VIII; read-out: MIC
Method: as §1, §2

[15] = system: Staph. aureus 209P vancomycin resistant mutant; experiment: MIC, standard microtiter assay; format: cell-based; conditions: Staphylococcus aureus, read-out: MIC in μg/ml
Method: as §2

Staph. epidermidis 2261 [16] = experiment: MIC, standard microtiter assay; format: cell-based; conditions: Staphylococcus epidermidis; Staph. epidermidis 2261; Table VIII; read-out: MIC
Method: as §2

Staph. aureus 2620 [17] = experiment: MBC, standard assay procedures; format: cell-based; conditions: Staphylococcus aureus; Staph. aureus 2620; Table VIII; read-out: MBC
Method: (§3) The in vitro minimal bactericidal concentration (MBC) of the AAJ-271 C, C2 and C3 factors and vancomycin were determined for a number of microorganisms using standard assay procedures.
as §2

Staph. aureus 675 [18] = experiment: MBC, standard assay procedures; format: cell-based; conditions: Staphylococcus aureus; Staph. aureus 675; Table VIII; read-out: MBC
Method: as §3, §2

Staph. aureus HH127 [19] = experiment: MBC, standard assay procedures; format: cell-based; conditions: Staphylococcus aureus; Staph. aureus HH127; Table VIII; read-out: MBC
Method: as §3, §2

Staph. epidermidis 2265 [20] = experiment: MBC, standard assay procedures; format: cell-based; conditions: Staphylococcus epidermidis; Staph. epidermidis 2265; Table VIII; read-out: MBC
Method: as §3, §2

Staph. epidermidis 2479 [21] = experiment: MBC, standard assay procedures; format: cell-based; conditions: Staphylococcus epidermidis; Staph. epidermidis 2479; Table VIII; read-out: MBC
Method: as §3, §2

Staph. haemolyticus 651 [22] = experiment: MBC, standard assay procedures; format: cell-based; conditions: Staphylococcus haemolyticus; Staph. haemolyticus 651; Table VIII; read-out: MBC
Method: as §3, §2

Strep. faecalis 34358 [23] = experiment: MBC, standard assay procedures; format: cell-based; conditions: Enterococcus faecalis; Strep. faecalis 34358; Table VIII; read-out: MBC
Method: as §3, §2

Strep. faecalis 657 [24] = experiment: MBC, standard assay procedures; format: cell-based; conditions: Enterococcus faecalis; Strep. faecalis 657; Table VIII; read-out: MBC
Method: as §3, §2

[25] = system: Staph. aureus 209P vancomycin resistant mutant; experiment: MBC, standard assay procedures; format: cell-based; conditions: Staphylococcus aureus, read-out: MBC in μg/ml
Method: as §2

Staph. aureus 209P [26] = experiment: MBC, standard assay procedures; format: cell-based; conditions: Staphylococcus aureus; Staph. aureus 209P; Table VIII; read-out: MBC
Method: as §2

Staph. aureus 910 [27] = experiment: MBC, standard assay procedures; format: cell-based; conditions: Staphylococcus aureus; Staph. aureus 910; Table VIII; read-out: MBC
Method: as §2

Staph. epidermidis 2256 [28] = experiment: MBC, standard assay procedures; format: cell-based; conditions: Staphylococcus epidermidis; Staph. epidermidis 2256; Table VIII; read-out: MBC
Method: as §2

Staph. epidermidis 2261 [29] = experiment: MBC, standard assay procedures; format: cell-based; conditions: Staphylococcus epidermidis; Staph. epidermidis 2261; Table VIII; read-out: MBC
Method: as §2

Staph. epidermidis 2588 [30] = experiment: MBC, standard assay procedures; format: cell-based; conditions: Staphylococcus epidermidis; Staph. epidermidis 2588; Table VIII; read-out: MBC
Method: as §2

[31] = system: Staph. saprophyticus 2657; experiment: MBC, standard assay procedures; format: cell-based; conditions: Staphylococcus saprophyticus; Staph. saprophyticus 2657; Table VIII; read-out: MBC
Method: as §2

[32] = system: Strep. pyogenes (Group A); experiment: MBC, standard assay procedures; format: cell-based; conditions: Streptococcus pyogenes; Strep. pyogenes (Group A); Table VIII; read-out: MBC
Method: as §2

Staph. aureus HH127 [33] = experiment: Mouse protection assay; format: in vivo; conditions: Staphylococcus aureus, 1 h; mice; intraperitoneal s.c. infection; Staph. aureus HH127, Dosage as No. of LD50's = 4; treatment one hour post infection; Table X; read-out: ED50
Strep. faecalis 34358 [34] = experiment: Mouse protection assay; format: in vivo; conditions: Enterococcus faecalis, 1 h; mice; intraperitoneal s.c. infection; Strep. faecalis 34358, Dosage as No. of LD50's = 3.5; treatment one hour post infection; Table X; read-out: ED50
Staph. aureus 2630 = experiment: Mouse protection assay; format: in vivo; conditions: Staphylococcus aureus, 2630, 1 h

| Compound | MIC (Staph. aureus 209P [1]) [µg/mL] | MIC (Staph. aureus 2620 [2]) [µg/mL] | MIC (Staph. aureus 675 [3]) [µg/mL] | MIC (Staph. aureus 910 [4]) [µg/mL] | MIC (Staph. aureus HH127 [5]) [µg/mL] | MIC (Staph. epidermidis 2256 [6]) [µg/mL] | MIC (Staph. epidermidis 2265 [7]) [µg/mL] | MIC (Staph. epidermidis 2479 [8]) [µg/mL] | MIC (Staph. epidermidis 2588 [9]) [µg/mL] | MIC (Staph. haemolyticus 651 [10]) [µg/mL] | MIC [11] [µg/mL] | MIC (Strep. faecalis 34358 [12]) [µg/mL] | MIC (Strep. faecalis 657 [13]) [µg/mL] | MIC [14] [µg/mL] | MIC [15] [µg/mL] | MIC (Staph. epidermidis 2261 [16]) [µg/mL] | MBC (Staph. aureus 2620 [17]) [µg/mL] | MBC (Staph. aureus 675 [18]) [µg/mL] | MBC (Staph. aureus HH127 [19]) [µg/mL] | MBC (Staph. epidermidis 2265 [20]) [µg/mL] | also measured |
| --- | --- | --- | --- | --- | --- | --- | --- | --- | --- | --- | --- | --- | --- | --- | --- | --- | --- | --- | --- | --- | --- |
| CN(C)C1C(=O)NC2Cc3ccc(cc3)Oc3cc4cc(c3O)Oc3ccc(cc3Cl)C(O)C3NC(=O)C(NC(=O)C4NC(=O)C(NC2=O)c2cc(cc(O)c2Cl)Oc2cc1ccc2O)c1ccc(O)c(c1)-c1c(O)cc(O)cc1C(C(=O)O)NC3=O (stereo not shown) [Aglycone 2] | 0.4 (≈ 0.326 µM) | 0.8 (≈ 0.652 µM) | 0.4 (≈ 0.326 µM) | 0.4 (≈ 0.326 µM) | 0.4 (≈ 0.326 µM) | 0.8 (≈ 0.652 µM) | 0.8 (≈ 0.652 µM) | 0.8 (≈ 0.652 µM) | 1.6 (≈ 1.3 µM) | 6.3 (≈ 5.13 µM) | 0.8 (≈ 0.652 µM) | 1.6 (≈ 1.3 µM) | 1.6 (≈ 1.3 µM) | 1.6 (≈ 1.3 µM) | 25 (≈ 20.4 µM) | 1.6 (≈ 1.3 µM) | 0.8 (≈ 0.652 µM) | 0.4 (≈ 0.326 µM) | 0.4 (≈ 0.326 µM) | 0.8 (≈ 0.652 µM) | MBC (Staph. epidermidis 2479 [21]): 0.8 µg/mL (≈ 0.652 µM); MBC (Staph. haemolyticus 651 [22]): 6.3 µg/mL (≈ 5.13 µM); MBC (Strep. faecalis 34358 [23]): > 50 µg/mL; MBC (Strep. faecalis 657 [24]): 6.3 µg/mL (≈ 5.13 µM); MBC [25]: 25 µg/mL (≈ 20.4 µM); MBC (Staph. aureus 209P [26]): 0.4 µg/mL (≈ 0.326 µM); MBC (Staph. aureus 910 [27]): 0.4 µg/mL (≈ 0.326 µM); MBC (Staph. epidermidis 2256 [28]): 0.8 µg/mL (≈ 0.652 µM); MBC (Staph. epidermidis 2261 [29]): 1.6 µg/mL (≈ 1.3 µM); MBC (Staph. epidermidis 2588 [30]): 3.1 µg/mL (≈ 2.53 µM); MBC [31]: 0.8 µg/mL (≈ 0.652 µM); MBC [32]: 0.8 µg/mL (≈ 0.652 µM) |
| CNC1C(=O)NC2Cc3ccc(cc3)Oc3cc4cc(c3O)Oc3ccc(cc3Cl)C(O)C3NC(=O)C(NC(=O)C4NC(=O)C(NC2=O)c2cc(cc(O)c2Cl)Oc2cc1ccc2O)c1ccc(O)c(c1)-c1c(O)cc(O)cc1C(C(=O)O)NC3=O (stereo not shown) [Aglycone 1] | 0.4 (≈ 0.33 µM) | 0.4 (≈ 0.33 µM) | 0.8 (≈ 0.66 µM) | 0.4 (≈ 0.33 µM) | 0.4 (≈ 0.33 µM) | 1.6 (≈ 1.32 µM) | 0.4 (≈ 0.33 µM) | 0.8 (≈ 0.66 µM) | 0.8 (≈ 0.66 µM) | 3.1 (≈ 2.56 µM) | 0.8 (≈ 0.66 µM) | 1.6 (≈ 1.32 µM) | 1.6 (≈ 1.32 µM) | 0.8 (≈ 0.66 µM) | 25 (≈ 20.6 µM) | 0.8 (≈ 0.66 µM) | 3.1 (≈ 2.56 µM) | 6.3 (≈ 5.19 µM) | 1.6 (≈ 1.32 µM) | 0.4 (≈ 0.33 µM) | MBC (Staph. epidermidis 2479 [21]): 6.3 µg/mL (≈ 5.19 µM); MBC (Staph. haemolyticus 651 [22]): 6.3 µg/mL (≈ 5.19 µM); MBC (Strep. faecalis 34358 [23]): 100 µg/mL (≈ 82.4 µM); MBC (Strep. faecalis 657 [24]): 100 µg/mL (≈ 82.4 µM); MBC [25]: 25 µg/mL (≈ 20.6 µM); MBC (Staph. aureus 209P [26]): 3.1 µg/mL (≈ 2.56 µM); MBC (Staph. aureus 910 [27]): 3.1 µg/mL (≈ 2.56 µM); MBC (Staph. epidermidis 2256 [28]): 1.6 µg/mL (≈ 1.32 µM); MBC (Staph. epidermidis 2261 [29]): 1.6 µg/mL (≈ 1.32 µM); MBC (Staph. epidermidis 2588 [30]): 0.8 µg/mL (≈ 0.66 µM); MBC [31]: 1.6 µg/mL (≈ 1.32 µM); MBC [32]: 0.8 µg/mL (≈ 0.66 µM); ED50 (Staph. aureus HH127 [33]): 0.88 mg/kg; ED50 (Strep. faecalis 34358 [34]): 5 mg/kg; ED50 (Staph. aureus 2630): 6.4 mg/kg |
